Laboratory results as given in ChEMBL document CHEMBL4602617, “Discovery and optimization of heteroaryl piperazines as potent and selective PI3Kδ inhibitors” (Bioorg Med Chem Lett, 2020).
pIC50: −log10 of the molar value.

Key:
CDK7/Cyclin H/MNAT1 = CDK7/Cyclin H/MNAT1 (Homo sapiens, UniProt P50613); assay: Inhibition of recombinant full length human His-tagged CDK7/CyclinH/MAT1 expressed in baculovirus expression system using CDK7/9tide peptide as substrate incubated for 60 mins in presence of ATP by Adapta assay
Chain of CDK7/Cyclin H/MNAT1 (P51946 whole entry, the tested form may be a part): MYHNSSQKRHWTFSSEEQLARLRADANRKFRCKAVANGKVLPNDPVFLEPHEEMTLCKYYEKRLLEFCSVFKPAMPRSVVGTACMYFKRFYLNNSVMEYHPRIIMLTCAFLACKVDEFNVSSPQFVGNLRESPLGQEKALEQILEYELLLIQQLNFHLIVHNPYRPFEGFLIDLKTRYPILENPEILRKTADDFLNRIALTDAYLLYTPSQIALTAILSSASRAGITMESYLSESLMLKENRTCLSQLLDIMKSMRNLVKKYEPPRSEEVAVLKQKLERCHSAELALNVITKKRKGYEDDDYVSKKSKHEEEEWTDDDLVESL
Chain of CDK7/Cyclin H/MNAT1 (P50613 whole entry, the tested form may be a part): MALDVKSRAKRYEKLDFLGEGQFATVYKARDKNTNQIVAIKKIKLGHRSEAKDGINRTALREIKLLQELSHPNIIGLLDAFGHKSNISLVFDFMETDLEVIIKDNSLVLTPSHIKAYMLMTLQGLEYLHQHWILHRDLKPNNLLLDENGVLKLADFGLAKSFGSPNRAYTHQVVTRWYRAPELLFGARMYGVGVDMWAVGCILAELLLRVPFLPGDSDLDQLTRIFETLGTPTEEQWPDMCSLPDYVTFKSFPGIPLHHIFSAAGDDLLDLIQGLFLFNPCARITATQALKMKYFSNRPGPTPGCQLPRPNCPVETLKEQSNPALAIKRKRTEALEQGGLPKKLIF
Chain of CDK7/Cyclin H/MNAT1 (P51948 whole entry, further chain, the tested form may be a part): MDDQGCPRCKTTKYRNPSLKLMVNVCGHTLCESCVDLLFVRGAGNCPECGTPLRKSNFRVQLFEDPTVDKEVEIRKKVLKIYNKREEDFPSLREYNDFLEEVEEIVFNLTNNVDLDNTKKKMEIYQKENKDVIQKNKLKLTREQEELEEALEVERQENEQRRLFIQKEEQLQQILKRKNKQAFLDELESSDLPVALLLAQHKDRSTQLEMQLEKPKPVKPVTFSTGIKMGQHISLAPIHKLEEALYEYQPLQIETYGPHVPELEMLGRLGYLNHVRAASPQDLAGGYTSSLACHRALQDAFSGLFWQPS

Ephrin type-B receptor 1 = Ephrin type-B receptor 1 (Homo sapiens, UniProt P54762); assay: Inhibition of recombinant human GST-tagged EPHB1 catalytic domain expressed in baculovirus expression system using tyrosine-2 peptide as substrate incubated for 60 mins in presence of ATP by Z'-LYTE assay
[1] = molecular target: Phosphatidylinositol 4-phosphate 3-kinase C2 domain-containing subunit beta (Homo sapiens, UniProt O00750); assay: Inhibition of recombinant GST-tagged human PIK3C2B catalytic domain expressed in baculovirus expression system using PI as substrate after 1 hr in presence of ATP by Adapta assay
Cytochrome P450 3A4 = Cytochrome P450 3A4 (Homo sapiens, UniProt P08684); assay: Inhibition of CYP3A4 (unknown origin); assay type: ADME
Chain of Cytochrome P450 3A4 (P08684 whole entry): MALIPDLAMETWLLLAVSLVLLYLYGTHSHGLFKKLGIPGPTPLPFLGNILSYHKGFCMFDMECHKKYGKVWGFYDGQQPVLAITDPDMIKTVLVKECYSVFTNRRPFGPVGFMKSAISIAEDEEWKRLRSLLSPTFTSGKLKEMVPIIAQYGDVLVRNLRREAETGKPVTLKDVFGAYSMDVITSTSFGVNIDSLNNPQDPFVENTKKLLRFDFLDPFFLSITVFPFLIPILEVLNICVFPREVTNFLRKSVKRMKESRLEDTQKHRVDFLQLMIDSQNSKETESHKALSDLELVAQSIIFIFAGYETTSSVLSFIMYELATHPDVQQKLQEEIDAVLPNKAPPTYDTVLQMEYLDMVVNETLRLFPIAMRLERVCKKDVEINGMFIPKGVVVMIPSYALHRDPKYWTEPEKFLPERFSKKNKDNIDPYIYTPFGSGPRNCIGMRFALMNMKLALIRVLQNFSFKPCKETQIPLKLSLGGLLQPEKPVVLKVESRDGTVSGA

[2] = molecular target: Histamine H4 receptor (Homo sapiens) (UniProt Q9H3N8); assay: Inhibition of human histamine H4 receptor at 10 uM relative to control
[3] = Unbound clearance in dog at 0.5 mg/kg, iv or 1 mg/kg, po; assay type: ADME, organism-based, Canis lupus familiaris; conditions: in vivo
[4] = molecular target: Platelet-derived growth factor receptor alpha (Homo sapiens, UniProt P16234, T674I); assay: Inhibition of recombinant human GST-tagged PDGFRalpha cytoplasmic domain (550 to 1089 residues) harboring T674I mutant expressed in baculovirus expression system using tyrosine-4 peptide as substrate incubated for 60 mins in presence of ATP by Z'-LYTE assay
Chain of Platelet-derived growth factor receptor alpha (P16234 24-1089 T674I limits assumed): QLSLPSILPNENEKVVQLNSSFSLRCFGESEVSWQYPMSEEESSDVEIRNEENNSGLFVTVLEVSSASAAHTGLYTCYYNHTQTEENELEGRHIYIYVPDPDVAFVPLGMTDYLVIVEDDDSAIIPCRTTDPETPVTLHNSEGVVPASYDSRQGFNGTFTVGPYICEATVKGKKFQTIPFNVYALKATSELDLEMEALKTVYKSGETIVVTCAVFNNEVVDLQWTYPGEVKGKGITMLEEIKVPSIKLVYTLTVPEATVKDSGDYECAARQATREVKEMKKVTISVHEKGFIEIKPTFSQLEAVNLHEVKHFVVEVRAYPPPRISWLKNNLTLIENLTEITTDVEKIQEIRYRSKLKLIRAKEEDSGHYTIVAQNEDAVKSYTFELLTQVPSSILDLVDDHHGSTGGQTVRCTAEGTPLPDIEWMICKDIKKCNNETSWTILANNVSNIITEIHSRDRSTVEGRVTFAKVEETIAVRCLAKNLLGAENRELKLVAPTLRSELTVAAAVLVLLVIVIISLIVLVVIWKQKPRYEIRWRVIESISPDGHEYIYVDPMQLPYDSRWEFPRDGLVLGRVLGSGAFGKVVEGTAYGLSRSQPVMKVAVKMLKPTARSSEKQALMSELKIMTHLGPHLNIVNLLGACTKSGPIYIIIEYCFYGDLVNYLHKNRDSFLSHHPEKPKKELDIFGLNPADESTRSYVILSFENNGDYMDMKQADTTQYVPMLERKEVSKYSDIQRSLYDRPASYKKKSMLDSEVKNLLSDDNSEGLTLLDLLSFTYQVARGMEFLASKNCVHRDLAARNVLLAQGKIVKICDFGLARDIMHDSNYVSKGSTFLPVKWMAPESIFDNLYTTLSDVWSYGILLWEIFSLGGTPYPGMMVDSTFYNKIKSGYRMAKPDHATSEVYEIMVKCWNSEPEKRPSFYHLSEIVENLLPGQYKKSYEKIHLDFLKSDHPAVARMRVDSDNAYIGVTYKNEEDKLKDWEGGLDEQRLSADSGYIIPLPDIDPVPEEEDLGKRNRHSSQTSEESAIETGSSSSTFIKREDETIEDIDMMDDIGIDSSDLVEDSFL

[5] = molecular target: MAP kinase-activated protein kinase 3 (Homo sapiens, UniProt Q16644); assay: Inhibition of recombinant His-tagged human full length MAPKAPK3 expressed in baculovirus expression system using Ser/Thr-04 peptide as substrate after 1 hr in presence of ATP by Z'LYTE assay
Chain of MAP kinase-activated protein kinase 3 (Q16644 whole entry): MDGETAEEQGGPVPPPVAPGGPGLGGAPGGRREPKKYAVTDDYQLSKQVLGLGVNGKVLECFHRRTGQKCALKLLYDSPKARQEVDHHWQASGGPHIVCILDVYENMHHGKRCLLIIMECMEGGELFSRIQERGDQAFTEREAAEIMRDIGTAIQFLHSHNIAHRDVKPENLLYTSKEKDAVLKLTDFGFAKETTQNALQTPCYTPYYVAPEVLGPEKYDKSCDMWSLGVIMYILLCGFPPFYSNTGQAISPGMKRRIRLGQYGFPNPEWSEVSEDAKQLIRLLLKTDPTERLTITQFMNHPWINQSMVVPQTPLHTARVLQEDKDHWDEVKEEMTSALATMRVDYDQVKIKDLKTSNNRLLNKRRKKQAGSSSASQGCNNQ

[6] = molecular target: Serine/threonine-protein kinase Nek4 (Homo sapiens, UniProt P51957); assay: Inhibition of recombinant full length human GST-tagged NEK4 expressed in baculovirus expression system using serine/threonine-7 peptide as substrate incubated for 60 mins in presence of ATP by Z'-LYTE assay
[7] = molecular target: Mitogen-activated protein kinase 1 (Homo sapiens, UniProt P28482); assay: Inhibition of recombinant full length human GST-tagged ERK2 expressed in Escherichia coli expression system using serine/threonine-3 peptide as substrate incubated for 60 mins in presence of ATP by Z'-LYTE assay
Chain of Mitogen-activated protein kinase 1 (P28482 whole entry): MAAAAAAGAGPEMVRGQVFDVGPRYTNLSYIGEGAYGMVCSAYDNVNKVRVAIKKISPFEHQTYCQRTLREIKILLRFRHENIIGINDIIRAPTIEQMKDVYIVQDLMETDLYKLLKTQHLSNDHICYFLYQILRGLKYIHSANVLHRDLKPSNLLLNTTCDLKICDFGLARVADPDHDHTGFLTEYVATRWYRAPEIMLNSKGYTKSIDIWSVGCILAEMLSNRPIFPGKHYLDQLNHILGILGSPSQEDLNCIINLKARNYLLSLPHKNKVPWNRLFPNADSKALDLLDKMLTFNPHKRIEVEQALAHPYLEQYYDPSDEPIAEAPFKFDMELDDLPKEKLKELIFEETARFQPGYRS

[8] = molecular target: Calcium/calmodulin-dependent protein kinase type 1D (Homo sapiens, UniProt Q8IU85); assay: Inhibition of recombinant full length human His-tagged CAMK1delta expressed in baculovirus expression system using serine/threonine-25 peptide as substrate incubated for 60 mins in presence of ATP by Z'-LYTE assay
[9] = molecular target: Serine/threonine-protein kinase Chk2 (Homo sapiens, UniProt O96017); assay: Inhibition of recombinant human full-length His-tagged CHEK2 expressed in baculovirus expression system using FRET-labeled Ser/Thr 07 peptide as substrate measured after 1 hr in presence of ATP by Z'-lyte assay
[10] = molecular target: Serine/threonine-protein kinase 26 (Homo sapiens, UniProt Q9P289); assay: Inhibition of recombinant full length human GST-tagged MST4 expressed in baculovirus expression system using serine/threonine-7 peptide as substrate incubated for 60 mins in presence of ATP by Z'-LYTE assay
[11] = molecular target: Platelet-activating factor receptor (Homo sapiens) (UniProt P25105); assay: Inhibition of human PAF at 10 uM relative to control
[12] = molecular target: Tyrosine-protein kinase Fes/Fps (Homo sapiens, UniProt P07332); assay: Inhibition of recombinant His-tagged full length human FES expressed in baculovirus expression system using Tyr 01 peptide as substrate after 1 hr by Z'-LYTE assay
[13] = molecular target: Phosphodiesterase 3 (Homo sapiens) (UniProt Q14432+Q13370); assay: Inhibition of human platelet PDE3 at 10 uM using cAMP as substrate after 20 mins in presence of [3H]cAMP by radiometric scintillation assay relative to control
[14] = molecular target: Phosphatidylinositol 4,5-bisphosphate 3-kinase catalytic subunit gamma isoform (Homo sapiens, UniProt P48736); assay: Inhibition of His-tagged recombinant human full length PI3K p110gamma expressed in baculovirus expression system using PIP2:PS lipid as substrate incubated for 1 hr in presence of ATP by Adapta assay
[15] = molecular target: Proto-oncogene tyrosine-protein kinase receptor Ret (Homo sapiens, UniProt P07949); assay: Inhibition of recombinant human GST-tagged RET cytoplasmic domain expressed in baculovirus expression system using tyr02 peptide as substrate incubated for 60 mins in presence of ATP by Z'-LYTE assay
[16] = molecular target: Serine/threonine-protein kinase PAK 5 (Homo sapiens, UniProt Q9P286); assay: Inhibition of recombinant human His-tagged PAK7 catalytic domain (425 to 719 residues) expressed in baculovirus expression system using serine/threonine-20 peptide as substrate incubated for 60 mins in presence of ATP by Z'-LYTE assay
[17] = molecular target: Serine/threonine-protein kinase MARK1 (Homo sapiens, UniProt Q9P0L2); assay: Inhibition of recombinant full length human GST-tagged MARK1 expressed in baculovirus expression system using serine/threonine-21 peptide as substrate incubated for 60 mins in presence of ATP by Z'-LYTE assay
[18] = molecular target: 5-hydroxytryptamine receptor 1A (Homo sapiens) (UniProt P08908); assay: Displacement of [3H]-8-OH-DPAT from full length human recombinant 5HT1A receptor expressed in CHOK-1 cells at 10 uM measured after 60 mins by radiometric scintillation analysis relative to control; assay type: cell-based
Chain of 5-hydroxytryptamine receptor 1A (Homo sapiens) (P08908 whole entry): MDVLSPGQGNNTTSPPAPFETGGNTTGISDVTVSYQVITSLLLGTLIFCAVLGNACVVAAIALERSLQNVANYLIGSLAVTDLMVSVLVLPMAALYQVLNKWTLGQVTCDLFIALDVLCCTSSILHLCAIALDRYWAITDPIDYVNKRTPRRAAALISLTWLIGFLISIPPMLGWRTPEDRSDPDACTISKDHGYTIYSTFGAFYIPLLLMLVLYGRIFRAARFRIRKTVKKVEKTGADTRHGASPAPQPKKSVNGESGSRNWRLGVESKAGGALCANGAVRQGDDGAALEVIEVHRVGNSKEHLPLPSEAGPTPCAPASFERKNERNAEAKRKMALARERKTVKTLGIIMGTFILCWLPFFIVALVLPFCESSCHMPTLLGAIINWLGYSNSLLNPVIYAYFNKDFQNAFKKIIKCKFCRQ

Rattus norvegicus = species on record: Rattus norvegicus; assay: Displacement of [3H]CGP-54626 from GABAB in Wistar rat whole brain at 10 uM incubated for 20 mins by radiometric scintillation analysis relative to control; assay type: tissue-based
[19] = molecular target: Phosphatidylinositol 4-kinase beta (Homo sapiens, UniProt Q9UBF8); assay: Inhibition of recombinant full length human GST-tagged PI4KB expressed in baculovirus expression system using PI lipid as substrate incubated for 60 mins in presence of ATP by Adapta assay
Chain of Phosphatidylinositol 4-kinase beta (Q9UBF8 whole entry): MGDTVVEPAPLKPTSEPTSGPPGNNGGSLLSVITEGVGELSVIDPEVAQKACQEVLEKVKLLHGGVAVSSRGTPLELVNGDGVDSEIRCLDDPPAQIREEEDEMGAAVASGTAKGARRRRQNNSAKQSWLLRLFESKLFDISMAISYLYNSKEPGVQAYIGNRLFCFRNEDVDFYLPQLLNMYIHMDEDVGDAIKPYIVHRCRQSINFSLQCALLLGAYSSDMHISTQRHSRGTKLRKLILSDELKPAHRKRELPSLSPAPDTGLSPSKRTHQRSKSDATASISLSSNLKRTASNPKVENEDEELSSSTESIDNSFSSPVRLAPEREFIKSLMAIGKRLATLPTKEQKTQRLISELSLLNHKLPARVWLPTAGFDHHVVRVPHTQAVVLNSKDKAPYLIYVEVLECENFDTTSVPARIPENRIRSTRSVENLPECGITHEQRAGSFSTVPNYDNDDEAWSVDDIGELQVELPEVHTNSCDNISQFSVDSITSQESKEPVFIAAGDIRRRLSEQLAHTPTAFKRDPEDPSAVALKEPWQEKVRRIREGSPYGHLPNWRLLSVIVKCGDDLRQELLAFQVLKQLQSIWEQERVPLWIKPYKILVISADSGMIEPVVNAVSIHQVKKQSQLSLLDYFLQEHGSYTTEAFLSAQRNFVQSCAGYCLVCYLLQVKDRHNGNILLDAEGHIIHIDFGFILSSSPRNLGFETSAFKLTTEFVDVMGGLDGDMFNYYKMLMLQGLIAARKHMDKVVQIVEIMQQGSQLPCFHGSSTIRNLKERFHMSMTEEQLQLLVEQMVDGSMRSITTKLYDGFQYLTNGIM

[20] = molecular target: Cannabinoid receptor 1 (Homo sapiens) (UniProt P21554); assay: Inhibition of human CB1 receptor at 10 uM relative to control
[21] = molecular target: Glycogen synthase kinase-3 beta (Homo sapiens, UniProt P49841); assay: Inhibition of recombinant full length human His-tagged GSK3beta expressed in baculovirus expression system using serine/threonine-9 peptide as substrate incubated for 60 mins in presence of ATP by Z'-LYTE assay
Chain of Glycogen synthase kinase-3 beta (P49841 whole entry): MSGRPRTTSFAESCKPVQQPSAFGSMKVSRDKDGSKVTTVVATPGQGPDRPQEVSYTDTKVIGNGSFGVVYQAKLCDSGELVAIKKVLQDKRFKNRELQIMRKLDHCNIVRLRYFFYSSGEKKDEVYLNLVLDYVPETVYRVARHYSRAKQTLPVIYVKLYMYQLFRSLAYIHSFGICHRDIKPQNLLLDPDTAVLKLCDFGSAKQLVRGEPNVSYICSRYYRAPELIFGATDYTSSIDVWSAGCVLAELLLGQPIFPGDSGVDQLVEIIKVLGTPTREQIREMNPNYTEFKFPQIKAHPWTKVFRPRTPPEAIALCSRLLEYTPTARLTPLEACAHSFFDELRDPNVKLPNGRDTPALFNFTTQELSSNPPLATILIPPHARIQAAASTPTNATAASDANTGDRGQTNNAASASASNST

[22] = molecular target: Muscarinic acetylcholine receptor M4 (Homo sapiens) (UniProt P08173); assay: Displacement of [3H]N-Methylscopolamine from full length human recombinant Muscarinic M4 receptor expressed in CHOK1 cells at 10 uM measured after 120 mins by radiometric scintillation analysis relative to control; assay type: cell-based; conditions: CHO-K1
[23] = molecular target: Serine/threonine-protein kinase D2 (Homo sapiens, UniProt Q9BZL6); assay: Inhibition of recombinant full length human GST-tagged PRKD2 expressed in baculovirus expression system using serine/threonine-01 peptide as substrate incubated for 60 mins in presence of ATP by Z'-LYTE assay

C[C@@H]1C[C@H]1C(=O)N1CCN(c2cnc(C#N)c(-c3cnn(C)c3)n2)C[C@H]1C
pIC50 (CDK7/Cyclin H/MNAT1): < 4.00
pIC50 (Ephrin type-B receptor 1): 4.42
pIC50 [1]: 4.39
pIC50 (Cytochrome P450 3A4): < 4.30
inhibition [2]: 1%
CL free [3]: 37 mL/min/kg
pIC50 [4]: < 4.00
pIC50 [5]: 4.63
pIC50 [6]: < 4.00
pIC50 [7]: < 4.00
pIC50 [8]: < 4.00
pIC50 [9]: < 4.00
pIC50 [10]: < 4.00
inhibition [11]: -5%
pIC50 [12]: < 4.00
inhibition [13]: 21%
pIC50 [14]: 6.02
pIC50 [15]: < 4.00
pIC50 [16]: < 4.00
pIC50 [17]: < 4.00
inhibition [18]: 9%
inhibition (Rattus norvegicus): -2%
pIC50 [19]: < 4.00
inhibition [20]: -1%
pIC50 [21]: 4.55
inhibition [22]: 3%
pIC50 [23]: < 4.00
